The text below walks through data of ChEMBL document CHEMBL4219030, “Progress in the discovery of small molecule modulators of the Cys-loop superfamily receptors” (Bioorg Med Chem Lett, 2017).

For assay [1], the target named is T1, Glycine receptor subunit alpha-1 (Homo sapiens) (UniProt P23415).
T1 sequence (whole entry): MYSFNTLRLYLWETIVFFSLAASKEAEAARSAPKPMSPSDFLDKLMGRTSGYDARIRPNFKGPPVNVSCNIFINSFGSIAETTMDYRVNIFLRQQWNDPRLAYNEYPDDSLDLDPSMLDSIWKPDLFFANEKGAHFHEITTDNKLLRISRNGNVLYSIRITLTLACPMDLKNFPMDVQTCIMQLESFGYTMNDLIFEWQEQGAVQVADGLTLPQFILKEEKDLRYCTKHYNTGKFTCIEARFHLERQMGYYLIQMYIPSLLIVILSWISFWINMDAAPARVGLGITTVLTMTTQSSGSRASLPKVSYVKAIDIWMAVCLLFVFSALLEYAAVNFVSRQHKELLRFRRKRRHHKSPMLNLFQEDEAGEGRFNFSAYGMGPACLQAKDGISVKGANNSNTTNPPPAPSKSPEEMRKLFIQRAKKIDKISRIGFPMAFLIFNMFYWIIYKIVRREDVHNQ
To be noted: HEK293, 30 uM.
Description: Positive allosteric modulation of recombinant human glycine receptor alpha1 expressed in HEK293 cells assessed as increase in glycine-induced current at 30 uM at -60 mV holding potential measured for 1 to 2 secs for every 60 secs by whole cell patch-clamp method relative to glycine

Assay [2] deals with Gamma-aminobutyric acid receptor subunit alpha-1/beta-2 (Rattus norvegicus) (UniProt P62813+P63138). To be noted: HEK293, 30 uM.
Description: Positive allosteric modulation of recombinant rat GABAA receptor alpha1beta2 expressed in HEK293 cells assessed as increase in GABA-induced current at 30 uM at -100 mV holding potential measured for 1 to 2 secs for every 60 secs by whole cell patch-clamp method relative to GABA
Assay [3] addresses T2, 5-hydroxytryptamine receptor 3A (Cavia porcellus, UniProt O70212).
T2 sequence (O70212 whole entry): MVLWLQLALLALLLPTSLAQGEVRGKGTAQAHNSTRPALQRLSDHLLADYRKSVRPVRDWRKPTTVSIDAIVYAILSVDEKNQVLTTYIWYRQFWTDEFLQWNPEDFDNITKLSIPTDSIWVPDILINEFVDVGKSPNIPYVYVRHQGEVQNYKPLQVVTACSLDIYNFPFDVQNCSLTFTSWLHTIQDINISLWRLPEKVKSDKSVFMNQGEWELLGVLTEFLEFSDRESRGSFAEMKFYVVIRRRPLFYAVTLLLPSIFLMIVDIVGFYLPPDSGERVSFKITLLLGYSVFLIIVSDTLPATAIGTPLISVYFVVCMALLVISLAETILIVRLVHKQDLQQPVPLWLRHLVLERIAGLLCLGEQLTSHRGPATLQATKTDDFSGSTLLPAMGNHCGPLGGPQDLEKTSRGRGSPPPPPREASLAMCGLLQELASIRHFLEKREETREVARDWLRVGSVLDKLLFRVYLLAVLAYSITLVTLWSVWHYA
Briefly: Antagonist activity 5-HT3A receptor in guinea pig ileum assessed as inhibition of 2-methyl-5-HT induced response preincubated for 10 mins followed by agonist addition. To be noted: read-out: pA2 (converted).

For assay [4], the target named is T3, 5-hydroxytryptamine receptor 3A (Homo sapiens, UniProt P46098).
T3 sequence (P46098 whole entry): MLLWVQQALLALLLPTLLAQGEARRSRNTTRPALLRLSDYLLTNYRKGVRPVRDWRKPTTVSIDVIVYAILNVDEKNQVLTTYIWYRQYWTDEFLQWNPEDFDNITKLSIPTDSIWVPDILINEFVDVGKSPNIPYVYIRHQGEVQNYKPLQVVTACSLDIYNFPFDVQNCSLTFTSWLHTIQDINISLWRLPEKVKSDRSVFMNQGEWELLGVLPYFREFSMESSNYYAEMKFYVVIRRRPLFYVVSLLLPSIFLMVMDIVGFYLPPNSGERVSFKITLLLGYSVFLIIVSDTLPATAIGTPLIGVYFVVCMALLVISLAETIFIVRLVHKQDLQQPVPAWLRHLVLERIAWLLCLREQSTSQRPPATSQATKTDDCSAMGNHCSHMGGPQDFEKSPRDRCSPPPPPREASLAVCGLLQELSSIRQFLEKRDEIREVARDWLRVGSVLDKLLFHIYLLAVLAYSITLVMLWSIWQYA
Description: Displacement of [3H]granisetron from human 5-HT3A receptor expressed in HEK293 cells by scintillation counting method. The class given is cell-based.

For assay [5], the target named is T4, Serotonin 3 (5-HT3) receptor (Homo sapiens, UniProt O95264+P46098).
T4 sequence (P46098 whole entry): T3 sequence (P46098 whole entry)
T4 sequence (O95264 whole entry): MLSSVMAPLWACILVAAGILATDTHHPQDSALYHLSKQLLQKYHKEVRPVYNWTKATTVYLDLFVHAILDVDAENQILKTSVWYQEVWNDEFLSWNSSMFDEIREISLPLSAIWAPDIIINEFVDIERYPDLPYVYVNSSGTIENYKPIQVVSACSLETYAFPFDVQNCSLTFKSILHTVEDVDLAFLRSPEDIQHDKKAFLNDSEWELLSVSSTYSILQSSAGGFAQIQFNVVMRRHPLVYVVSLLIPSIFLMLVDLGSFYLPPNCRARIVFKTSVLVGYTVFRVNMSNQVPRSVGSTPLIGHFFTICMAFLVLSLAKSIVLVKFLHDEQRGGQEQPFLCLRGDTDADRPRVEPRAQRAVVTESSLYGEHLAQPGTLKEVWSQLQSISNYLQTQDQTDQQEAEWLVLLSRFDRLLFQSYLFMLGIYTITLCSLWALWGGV
Briefly: Displacement of [3H]granisetron from human 5-HT3AB receptor expressed in HEK293 cells by scintillation counting method. The class given is cell-based.

Assay [6] deals with T3, 5-hydroxytryptamine receptor 3A. Description: Inhibition of recombinant human 5-HT3A receptor expressed in HEK293 cell membranes […] in presence of [3H]GR65630.
Assay [7] concerns the target Neuronal acetylcholine receptor subunit alpha-7 (Rattus norvegicus, UniProt Q05941). Description: Agonist activity at rat brain membrane alpha7 nAChR.
Assay [8] addresses T3, 5-hydroxytryptamine receptor 3A. Description: Inhibition of human 5-HT3A receptor expressed in […] cells after 30 mins by Fluo-4-AM dye based FLIPR assay. Format: cell-based.
The target of assay [9] is T4, Serotonin 3 (5-HT3) receptor. Description: Inhibition of human 5-HT3AB receptor expressed in […] cells after 30 mins by Fluo-4-AM dye based FLIPR assay. Format: cell-based.
Assay [10] deals with 5-hydroxytryptamine receptor 3A/3C (Homo sapiens, UniProt P46098+Q8WXA8). Briefly: Inhibition of human 5-HT3AC receptor expressed in […] cells after 30 mins by Fluo-4-AM dye based FLIPR assay. The class given is cell-based.
Sequence of 5-hydroxytryptamine receptor 3A/3C (Q8WXA8 whole entry, one chain of several): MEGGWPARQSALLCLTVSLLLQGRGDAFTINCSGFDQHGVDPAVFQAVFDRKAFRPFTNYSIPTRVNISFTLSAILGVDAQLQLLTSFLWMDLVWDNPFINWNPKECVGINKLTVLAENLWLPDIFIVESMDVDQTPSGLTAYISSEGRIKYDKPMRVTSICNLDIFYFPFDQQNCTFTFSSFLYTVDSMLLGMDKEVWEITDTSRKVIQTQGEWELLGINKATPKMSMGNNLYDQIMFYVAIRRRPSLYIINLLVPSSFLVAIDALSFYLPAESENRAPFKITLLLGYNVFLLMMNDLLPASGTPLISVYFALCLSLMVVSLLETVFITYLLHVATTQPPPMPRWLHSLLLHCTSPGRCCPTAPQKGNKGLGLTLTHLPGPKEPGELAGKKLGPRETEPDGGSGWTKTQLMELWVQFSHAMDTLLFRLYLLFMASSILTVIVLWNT
Assay [11] deals with 5-hydroxytryptamine receptor 3A/3E (Homo sapiens, UniProt A5X5Y0+P46098). Briefly: Inhibition of human 5-HT3AE receptor expressed in […] cells after 30 mins by Fluo-4-AM dye based FLIPR assay. The class given is cell-based.
Sequence of 5-hydroxytryptamine receptor 3A/3E (A5X5Y0 whole entry, one chain of several): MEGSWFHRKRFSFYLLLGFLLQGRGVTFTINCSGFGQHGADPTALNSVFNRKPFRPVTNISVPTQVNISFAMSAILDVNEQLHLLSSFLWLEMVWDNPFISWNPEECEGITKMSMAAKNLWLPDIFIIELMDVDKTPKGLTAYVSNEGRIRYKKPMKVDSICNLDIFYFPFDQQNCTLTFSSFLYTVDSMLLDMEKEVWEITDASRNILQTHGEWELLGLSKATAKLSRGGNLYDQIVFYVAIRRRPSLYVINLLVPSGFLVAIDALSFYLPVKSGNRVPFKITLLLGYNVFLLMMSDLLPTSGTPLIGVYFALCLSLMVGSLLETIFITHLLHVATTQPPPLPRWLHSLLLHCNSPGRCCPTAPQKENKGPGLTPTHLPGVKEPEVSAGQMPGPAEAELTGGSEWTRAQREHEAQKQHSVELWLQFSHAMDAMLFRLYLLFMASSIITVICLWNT
For assay [12], the target named is Glycine receptor (Rattus norvegicus) (UniProt P22771+P24524+P07727+P20781). Description: Positive allosteric modulation of OFA rat embryonic ventral spinal cord neuron glycine receptor assessed as potentiation of glycine-induced chloride current at 1 to 10 uM by whole cell patch-clamp method relative to 10 uM glycine. The class given is protein-complex assay.
Sequence of Glycine receptor (Rattus norvegicus) (P07727 whole entry, looked up): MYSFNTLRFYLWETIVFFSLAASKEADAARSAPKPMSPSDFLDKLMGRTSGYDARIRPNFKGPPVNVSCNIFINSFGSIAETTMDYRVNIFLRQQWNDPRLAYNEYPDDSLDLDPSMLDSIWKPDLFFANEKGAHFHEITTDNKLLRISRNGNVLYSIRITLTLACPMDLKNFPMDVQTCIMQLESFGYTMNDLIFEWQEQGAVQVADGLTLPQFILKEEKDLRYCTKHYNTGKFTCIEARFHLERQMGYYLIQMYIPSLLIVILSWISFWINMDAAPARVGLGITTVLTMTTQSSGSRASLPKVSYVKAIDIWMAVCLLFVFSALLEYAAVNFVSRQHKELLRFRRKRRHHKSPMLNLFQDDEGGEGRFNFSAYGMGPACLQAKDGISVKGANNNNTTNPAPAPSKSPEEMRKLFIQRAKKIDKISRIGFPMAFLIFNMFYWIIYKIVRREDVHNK
Sequence of Glycine receptor (Rattus norvegicus) (P20781 whole entry, looked up): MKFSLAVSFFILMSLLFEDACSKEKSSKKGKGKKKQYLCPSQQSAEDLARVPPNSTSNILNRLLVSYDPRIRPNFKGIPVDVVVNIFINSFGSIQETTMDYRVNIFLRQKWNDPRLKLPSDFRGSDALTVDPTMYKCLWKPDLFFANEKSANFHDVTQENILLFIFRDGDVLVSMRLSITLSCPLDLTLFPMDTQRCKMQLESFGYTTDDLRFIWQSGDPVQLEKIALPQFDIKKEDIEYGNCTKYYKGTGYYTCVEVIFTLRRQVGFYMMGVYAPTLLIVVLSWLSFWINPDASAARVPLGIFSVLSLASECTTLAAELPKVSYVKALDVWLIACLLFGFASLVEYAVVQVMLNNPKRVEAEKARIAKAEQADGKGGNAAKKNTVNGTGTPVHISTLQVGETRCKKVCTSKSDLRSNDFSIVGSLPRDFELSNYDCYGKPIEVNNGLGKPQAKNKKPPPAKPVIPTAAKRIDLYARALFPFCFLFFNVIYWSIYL
Sequence of Glycine receptor (Rattus norvegicus) (P22771 whole entry, looked up): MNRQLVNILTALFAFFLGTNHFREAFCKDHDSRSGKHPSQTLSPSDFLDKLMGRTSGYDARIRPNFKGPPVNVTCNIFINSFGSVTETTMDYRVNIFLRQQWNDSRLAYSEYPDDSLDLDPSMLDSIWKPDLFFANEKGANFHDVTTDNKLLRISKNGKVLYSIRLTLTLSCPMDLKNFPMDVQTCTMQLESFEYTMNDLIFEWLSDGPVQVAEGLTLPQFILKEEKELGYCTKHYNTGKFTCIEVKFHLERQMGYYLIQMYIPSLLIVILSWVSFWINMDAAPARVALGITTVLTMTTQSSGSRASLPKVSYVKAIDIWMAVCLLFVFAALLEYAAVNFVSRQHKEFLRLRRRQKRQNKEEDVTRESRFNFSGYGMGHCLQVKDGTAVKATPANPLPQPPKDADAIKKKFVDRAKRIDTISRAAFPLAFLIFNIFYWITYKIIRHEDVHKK
Sequence of Glycine receptor (Rattus norvegicus) (P24524 whole entry, looked up): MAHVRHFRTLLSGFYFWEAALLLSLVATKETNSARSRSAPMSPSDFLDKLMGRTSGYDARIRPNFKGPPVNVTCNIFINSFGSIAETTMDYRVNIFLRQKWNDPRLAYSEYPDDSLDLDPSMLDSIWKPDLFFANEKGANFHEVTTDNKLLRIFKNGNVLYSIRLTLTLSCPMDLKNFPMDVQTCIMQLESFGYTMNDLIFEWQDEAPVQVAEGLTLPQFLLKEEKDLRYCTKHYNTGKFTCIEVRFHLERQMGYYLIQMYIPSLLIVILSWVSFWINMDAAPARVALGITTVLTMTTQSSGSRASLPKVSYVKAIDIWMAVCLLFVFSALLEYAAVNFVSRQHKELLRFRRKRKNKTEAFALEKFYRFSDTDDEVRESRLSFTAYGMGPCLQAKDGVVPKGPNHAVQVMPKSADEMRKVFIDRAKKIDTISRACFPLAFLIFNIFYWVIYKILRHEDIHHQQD
Assay [13] deals with T5, Glycine receptor subunit alpha-1 (Homo sapiens, UniProt P23415).
T5 sequence (P23415 whole entry): T1 sequence (whole entry)
Briefly: Positive allosteric modulation of human glycine alpha1 receptor expressed in HEK293T cells assessed as glycine-induced increase incurrent response after 18 to 24 hrs by membrane potential blue dye based FLIPR assay. The class given is cell-based.

Assay [14] has as its target Glycine receptor (alpha-1/beta) (Homo sapiens, UniProt P23415+P48167). Briefly: Positive allosteric modulation of human glycine alpha1beta receptor expressed in HEK293T cells assessed as glycine-induced increase in current response after 18 to 24 hrs by membrane potential blue dye based FLIPR assay. The class given is cell-based.
The target of assay [15] is T6, Glycine receptor alpha-3/beta (Homo sapiens, UniProt O75311+P48167). Briefly: Positive allosteric modulation of human glycine alpha3beta receptor expressed in HEK293T cells assessed as glycine-induced increase in current response after 18 to 24 hrs by membrane potential blue dye based FLIPR assay. The class given is cell-based.
T6 sequence (O75311 whole entry): as the sequence (P24524 whole entry, looked up) above, with L11V, N32D, T372M, L381F, V398M, V399T, A406P, A414P, H461Q counted along it
T6 sequence (P48167 whole entry): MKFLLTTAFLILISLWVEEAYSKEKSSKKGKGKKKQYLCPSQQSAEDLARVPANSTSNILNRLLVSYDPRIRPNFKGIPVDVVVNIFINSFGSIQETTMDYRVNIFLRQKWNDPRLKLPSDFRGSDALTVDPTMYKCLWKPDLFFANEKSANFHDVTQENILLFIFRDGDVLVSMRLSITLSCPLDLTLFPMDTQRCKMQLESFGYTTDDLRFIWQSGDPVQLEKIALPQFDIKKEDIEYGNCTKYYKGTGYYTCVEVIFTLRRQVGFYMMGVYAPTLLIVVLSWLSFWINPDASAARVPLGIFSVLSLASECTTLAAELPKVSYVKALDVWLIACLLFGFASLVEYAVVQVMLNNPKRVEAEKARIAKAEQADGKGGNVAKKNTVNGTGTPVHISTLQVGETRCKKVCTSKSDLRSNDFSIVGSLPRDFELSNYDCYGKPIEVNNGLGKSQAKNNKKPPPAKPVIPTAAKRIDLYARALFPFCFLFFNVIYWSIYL
For assay [16], the target named is T6, Glycine receptor alpha-3/beta. Description: Positive allosteric modulation of human glycine alpha3beta receptor expressed in HEK293T cells assessed as potentiation of glycine-induced increase in current response after 18 to 24 hrs by membrane potential blue dye based FLIPR assay relative to glycine. Format: cell-based.
In assay [17] the target is GABA-A receptor alpha-1/beta-3 (Homo sapiens) (UniProt P14867+P28472). Briefly: Positive allosteric modulation of recombinant human GABAA receptor alpha1beta3 expressed in Xenopus oocytes assessed as potentiation of GABA induced chloride current response relative to GABA. Format: cell-based.
For assay [18], the target named is Gamma-aminobutyric acid receptor subunit alpha-2/beta-3 (Homo sapiens) (UniProt P28472+P47869). Description: Positive allosteric modulation of recombinant human GABAA receptor alpha2beta3 expressed in Xenopus oocytes assessed as potentiation of GABA induced chloride current response relative to GABA. Format: cell-based.
Assay [19] concerns the target Gamma-aminobutyric acid receptor subunit alpha-3/beta-3 (Homo sapiens) (UniProt P28472+P34903). Briefly: Positive allosteric modulation of recombinant human GABAA receptor alpha3beta3 expressed in Xenopus oocytes assessed as potentiation of GABA induced chloride current response relative to GABA. The class given is cell-based.
The target in assay [20] is Gamma-aminobutyric acid receptor subunit alpha-5/beta-3 (Homo sapiens) (UniProt P28472+P31644). Briefly: Positive allosteric modulation of recombinant human GABAA receptor alpha5beta3 expressed in Xenopus oocytes assessed as potentiation of GABA induced chloride current response relative to GABA. Format: cell-based.
Assay [21] addresses GABA-A receptor; alpha-1/beta-3/gamma-2 (Homo sapiens) (UniProt P14867+P18507+P28472). Description: Positive allosteric modulation of recombinant human GABAA receptor alpha1beta3gamma2 expressed in Xenopus oocytes assessed as potentiation of GABA induced chloride current response relative to 10 uM GABA. Format: cell-based.
Assay [22] addresses GABA-A receptor; alpha-2/beta-3/gamma-2 (Homo sapiens) (UniProt P18507+P28472+P47869). Briefly: Positive allosteric modulation of recombinant human GABAA receptor alpha2beta3gamma2 expressed in Xenopus oocytes assessed as potentiation of GABA induced chloride currents relative to 10 uM GABA. The class given is cell-based.
Assay [23] addresses GABA-A receptor; alpha-3/beta-3/gamma-2 (Homo sapiens) (UniProt P18507+P28472+P34903). Description: Positive allosteric modulation of recombinant human GABAA receptor alpha3beta3gamma2 expressed in Xenopus oocytes assessed as potentiation of GABA induced chloride currents relative to 10 uM GABA. The class given is cell-based.
Assay [24] has as its target GABA A receptor alpha-4/beta-3/gamma-2 (Homo sapiens, UniProt P18507+P28472+P48169). Briefly: Positive allosteric modulation of recombinant human GABAA receptor alpha4beta3gamma2 expressed in Xenopus oocytes assessed as potentiation of GABA induced chloride currents relative to 10 uM GABA. The class given is cell-based.
In assay [25] the target is GABA-A receptor; alpha-5/beta-3/gamma-2 (Homo sapiens) (UniProt P18507+P28472+P31644). Briefly: Positive allosteric modulation of recombinant human GABAA receptor alpha5beta3gamma2 expressed in Xenopus oocytes assessed as potentiation of GABA induced chloride currents relative to 10 uM GABA. Format: cell-based.
Assay [26] addresses GABA-A receptor; alpha-6/beta-3/gamma-2 (Homo sapiens) (UniProt P18507+P28472+Q16445). Briefly: Positive allosteric modulation of recombinant human GABAA receptor alpha6beta3gamma2 expressed in Xenopus oocytes assessed as potentiation of GABA induced chloride currents relative to 10 uM GABA. Format: cell-based.
For assay [27], the target named is Neuronal acetylcholine receptor; alpha3/beta2 (Homo sapiens) (UniProt P17787+P32297). Briefly: Positive allosteric modulation of human alpha3beta2 nAChR expressed Xenopus oocytes at 3 uM relative to acetylcholine. Format: protein-complex assay.
In assay [28] the target is T1, Glycine receptor subunit alpha-1 (Homo sapiens). Description: Positive allosteric modulation of human glycine receptor alpha1 expressed in HEK293 cells assessed as potentiation of glycine-induced current response at 10 uM measure for 3 to 6 secs by whole cell patch-clamp method relative to glycine. Format: cell-based.
The target in assay [29] is T3, 5-hydroxytryptamine receptor 3A. Briefly: Agonist activity at human […] receptor expressed in Xenopus laevis oocytes. The class given is cell-based.
The target in assay [30] is T4, Serotonin 3 (5-HT3) receptor. Briefly: Agonist activity at human […] receptor expressed in Xenopus laevis oocytes. Format: cell-based.

Sequence of Glycine receptor (alpha-1/beta) (P48167 whole entry, one chain of several): as the sequence (P48167 whole entry) above
Sequence of Neuronal acetylcholine receptor subunit alpha-7 (Q05941 whole entry): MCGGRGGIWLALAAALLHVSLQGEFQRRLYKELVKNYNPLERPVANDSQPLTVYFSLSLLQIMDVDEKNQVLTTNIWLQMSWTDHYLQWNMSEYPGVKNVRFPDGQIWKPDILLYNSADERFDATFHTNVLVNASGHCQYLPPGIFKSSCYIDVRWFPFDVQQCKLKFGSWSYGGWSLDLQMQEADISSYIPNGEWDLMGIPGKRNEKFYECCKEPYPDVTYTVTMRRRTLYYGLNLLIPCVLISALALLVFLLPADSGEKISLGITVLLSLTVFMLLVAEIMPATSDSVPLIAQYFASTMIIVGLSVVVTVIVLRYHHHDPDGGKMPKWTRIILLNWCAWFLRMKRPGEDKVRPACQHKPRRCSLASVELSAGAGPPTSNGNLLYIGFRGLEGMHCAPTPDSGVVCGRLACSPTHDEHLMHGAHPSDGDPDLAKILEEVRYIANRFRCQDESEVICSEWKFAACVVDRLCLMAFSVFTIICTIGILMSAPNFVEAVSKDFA

Consider `CC(C)c1cccc(C(C)C)c1O`, for which the Emax in assay [1] amounted to 189%; in assay [2] it was 279%.

Turning to `O=C(c1cnc2ccccc2n1)N1CCN(Cc2ccccc2)CC1`, in [3], the Kb is 15.8 nM.

For `COc1nc2ccccc2nc1C(=O)Nc1nc2ccccc2s1`, the Kb in assay [3] is 39.8 nM.

With `CN1CCN(c2nc3ccccc3nc2Cl)CC1`, the values for the Ki in assay [4] and in assay [5] were 0.04 nM and 22 nM, respectively.

Take `O=C(N[C@H]1CN2CCC1CC2)c1ccc2ncccc2c1`: the IC50 in assay [6] stood at 150 nM; in [7], 10 µM.

Consider `c1ccc2c(CSc3[nH]cnc4ncnc3-4)cccc2c1`, for which the concentration for half-maximal inhibition (IC50) was 620 nM in assay [8], 430 nM in assay [9], 840 nM in [10] and 710 nM in assay [11].

Take `CN1[C@@H]2CC[C@H]1C[C@@H](NC(=O)c1nn(C)c3ccccc13)C2`: the fold change (FC) in assay [12] turned out to be 1.73.

For the compound `CN1C(=O)[C@@H]2CN(S(=O)(=O)c3ccc4occc4c3)C[C@@H]2c2cnccc21`, the EC50 came out at 327 nM in assay [13], 171 nM in [14] and 330 nM in [15]. The fold change (FC) in [16] stood at 16.

Turning to `O=C1C=C[C@H]([C@H]2c3cccc([N+](=O)[O-])c3C=CN2C(=O)OCc2ccccc2)O1`, the fold change (FC) in assay [17] was determined as 1.4; in assay [18], 1.8; in assay [19], 1.4; in assay [20], 1.4; in assay [21], 2.6; in [22] it was 2.1. Moreover, the fold change (FC) was found to be 2.9 in [23], 1.4 in assay [24], 1.4 in assay [25] and 2.9 in assay [26].

`Clc1ccccc1CN[C@@H]1CN2CCC1CC2`: the fold change (FC) in assay [27] came out at 3.

As for `COc1nc2ccccc2nc1C(=O)Nc1ccc(C)cc1`, the Kb in assay [3] is 50.1 nM.

Regarding `CCCCNC(=O)c1nc2ccccc2nc1OC`, the Kb in assay [3] is 20 nM.

In the case of `CCCCCc1ccc2c(c1)OC(C)(C)[C@@H]1CCC(C)=C[C@@H]21`, in [28], the fold change (FC) turned out to be 30.

On to `N=C(N)NC(=N)Nc1cccc(Cl)c1`, for which the EC50 in assay [29] amounted to 3.8 µM; in assay [30], 2800 nM.
